From a compilation of properties of binary mixtures (doi:10.1016/j.molliq.2017.08.019)

Assay: xn = mol fraction of the nth substance listed
Conditions: 100 kPa

CCCC[n+]1ccn(C)c1.O=S(=O)([O-])C(F)(F)F + CCCC[n+]1ccn(C)c1.F[P-](F)(F)(F)(F)F
viscosity [mPa·s]
Conditions	293.15 K	298.15 K	303.15 K	308.15 K	313.15 K	318.15 K	323.15 K	328.15 K
x2 = 0	90.8	76	–	51.7	42.11	35.18	30.02	26.6
x2 = 0.0005	90.9	76	–	51.8	–	35.2	–	26.61
x2 = 0.0006	90.9	76.1	63.6	51.8	–	–	–	26.61
x2 = 0.0007	90.9	–	63.6	51.8	42.14	35.2	30.03	26.61
x2 = 0.0009	90.9	76.1	63.7	51.8	–	35.21	30.04	26.61
x2 = 0.0018	91	–	63.7	51.8	42.17	–	30.05	26.62
x2 = 0.0061	–	76.5	64	52	42.34	35.36	30.15	26.71
x2 = 0.01	91.9	76.9	64.3	52.2	42.5	35.49	30.24	26.79
x2 = 0.0501	96.7	80.5	67.1	54.4	44.11	36.73	31.17	27.59
x2 = 0.0806	100.4	–	–	56.1	45.35	37.69	32.03	28.27
x2 = 0.1	102.9	85.3	–	57.1	46.2	38.32	32.53	28.7
x2 = 0.15	–	90.4	74.7	–	48.4	–	33.86	–
x2 = 0.1999	–	95.8	78.8	–	–	–	35.27	–
x2 = 0.3	132.1	107.5	87.8	69.7	55.5	–	–	33.41
x2 = 0.3999	149.7	120.7	97.7	77	60.9	49.6	41.49	36.06
x2 = 0.5002	169.7	135.6	108.9	85.2	–	54.1	45	38.95
x2 = 0.6	192.3	152.2	121.3	94.1	73.3	58.9	48.8	42.02
x2 = 0.7	–	170.9	135.1	104	80.4	64.2	52.9	45.35
x2 = 0.7995	247	191.8	150.3	114.8	–	70	57.4	48.9
x2 = 0.8997	280	215	167.5	126.9	96.7	–	–	52.8

CCCC[n+]1ccn(C)c1.F[P-](F)(F)(F)(F)F + CCCC[n+]1ccn(C)c1.O=S(=O)([O-])C(F)(F)F
x1 = 1
Conditions	viscosity [mPa·s]
293.15 K	337
298.15 K	257
303.15 K	197.6
308.15 K	148.3
313.15 K	112
323.15 K	71
328.15 K	59.7
